The target of test [1] is Casein kinase I isoform gamma-1 (Homo sapiens) (UniProt Q9HCP0). The conditions noted are these: at 10 µM.
The target of test [2] is TGF-beta receptor type-2 (Homo sapiens) (UniProt P37173). Briefly: Selectivity interaction (KinomeScan (DiscoverX)) EUB0000666a TGFBR2. The conditions noted are these: at 10 µM.
Test [3] addresses T1, Dual specificity mitogen-activated protein kinase kinase 3 (Homo sapiens) (UniProt P46734).
T1 sequence (whole entry): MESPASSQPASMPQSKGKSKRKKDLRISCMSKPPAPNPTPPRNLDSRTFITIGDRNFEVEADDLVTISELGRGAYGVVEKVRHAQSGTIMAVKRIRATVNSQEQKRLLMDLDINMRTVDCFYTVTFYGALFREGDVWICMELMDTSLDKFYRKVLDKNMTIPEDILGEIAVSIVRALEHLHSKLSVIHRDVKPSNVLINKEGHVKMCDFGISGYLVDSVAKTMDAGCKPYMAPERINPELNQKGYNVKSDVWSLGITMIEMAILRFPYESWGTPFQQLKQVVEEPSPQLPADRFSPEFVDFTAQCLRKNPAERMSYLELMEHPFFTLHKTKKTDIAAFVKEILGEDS
Put plainly: Selectivity interaction (KinomeScan (DiscoverX)) EUB0000607a MAP2K3. The conditions noted are these: at 10 µM.

Test [4] addresses T2, Protein kinase C epsilon type (Homo sapiens) (UniProt Q02156).
T2 sequence (whole entry): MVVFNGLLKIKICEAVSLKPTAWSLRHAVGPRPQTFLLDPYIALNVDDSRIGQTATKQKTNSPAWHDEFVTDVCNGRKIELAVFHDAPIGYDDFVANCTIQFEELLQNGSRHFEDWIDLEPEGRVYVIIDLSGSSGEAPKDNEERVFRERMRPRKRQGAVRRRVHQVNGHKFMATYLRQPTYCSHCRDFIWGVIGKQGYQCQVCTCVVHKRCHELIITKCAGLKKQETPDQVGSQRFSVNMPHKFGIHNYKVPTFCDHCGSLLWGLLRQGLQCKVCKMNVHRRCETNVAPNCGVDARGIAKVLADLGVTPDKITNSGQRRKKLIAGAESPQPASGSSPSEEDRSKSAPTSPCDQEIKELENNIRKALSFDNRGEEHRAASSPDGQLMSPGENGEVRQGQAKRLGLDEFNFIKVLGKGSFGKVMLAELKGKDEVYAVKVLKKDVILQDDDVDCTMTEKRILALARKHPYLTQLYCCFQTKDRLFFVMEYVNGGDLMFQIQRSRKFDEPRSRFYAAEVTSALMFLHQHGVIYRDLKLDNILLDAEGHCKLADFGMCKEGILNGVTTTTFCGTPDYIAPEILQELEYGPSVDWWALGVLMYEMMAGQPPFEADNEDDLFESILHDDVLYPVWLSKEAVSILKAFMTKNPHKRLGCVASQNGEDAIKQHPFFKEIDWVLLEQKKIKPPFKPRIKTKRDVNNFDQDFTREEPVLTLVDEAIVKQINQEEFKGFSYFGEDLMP
Briefly: Selectivity interaction (SelectScreen profiling (Invitrogen)) EUB0000607a PRKCE. The conditions noted are these: at 2 µM.

Test [5] concerns the target T3, Serine/threonine-protein kinase Sgk3 (Homo sapiens) (UniProt Q96BR1).
T3 sequence (whole entry): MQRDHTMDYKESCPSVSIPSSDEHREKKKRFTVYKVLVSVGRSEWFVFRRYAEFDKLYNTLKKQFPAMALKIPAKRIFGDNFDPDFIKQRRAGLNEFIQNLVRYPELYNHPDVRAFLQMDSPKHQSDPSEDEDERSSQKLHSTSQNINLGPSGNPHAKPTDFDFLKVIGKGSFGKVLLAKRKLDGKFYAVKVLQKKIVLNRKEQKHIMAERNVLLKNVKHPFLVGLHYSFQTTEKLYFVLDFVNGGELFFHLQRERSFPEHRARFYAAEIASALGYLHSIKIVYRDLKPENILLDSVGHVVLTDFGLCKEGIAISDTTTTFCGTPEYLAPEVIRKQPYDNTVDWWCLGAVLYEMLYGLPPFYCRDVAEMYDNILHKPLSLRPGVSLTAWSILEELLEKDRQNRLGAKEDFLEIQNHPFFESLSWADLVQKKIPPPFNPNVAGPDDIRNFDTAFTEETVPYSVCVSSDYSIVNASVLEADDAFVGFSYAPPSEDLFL
Briefly: Selectivity interaction (ActivX KiNativ screen (kinase selectivity in THP-1 cell lysates)) EUB0000639a SGK3. The conditions noted are these: lysate, at 0.01 µM. The format is subcellular.

The target of test [6] is T4, Mitogen-activated protein kinase 12 (Homo sapiens) (UniProt P53778).
T4 sequence (whole entry): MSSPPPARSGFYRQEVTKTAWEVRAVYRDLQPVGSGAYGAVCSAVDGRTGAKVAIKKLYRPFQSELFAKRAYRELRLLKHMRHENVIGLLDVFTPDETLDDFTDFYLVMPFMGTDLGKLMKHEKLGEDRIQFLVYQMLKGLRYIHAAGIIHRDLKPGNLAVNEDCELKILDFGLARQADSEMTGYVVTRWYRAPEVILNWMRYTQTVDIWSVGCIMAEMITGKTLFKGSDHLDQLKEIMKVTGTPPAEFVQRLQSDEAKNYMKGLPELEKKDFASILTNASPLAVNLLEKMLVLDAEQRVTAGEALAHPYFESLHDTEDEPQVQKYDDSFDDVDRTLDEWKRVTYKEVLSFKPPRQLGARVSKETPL
Put plainly: Selectivity interaction (KinomeScan (DiscoverX)) EUB0000045b MAPK12.

For test [7], the target named is CDK6/cyclin D1 (Homo sapiens) (UniProt P24385+Q00534). Briefly: (§1) Selectivity interaction (ProQinase) EUB0000171b CDK6. The format is protein-complex assay.
Test [8] addresses CDK6/cyclin D3 (Homo sapiens) (UniProt P30281+Q00534). The test is described as §1. The format is protein-complex assay.
The target of test [9] is T5, Membrane-associated tyrosine- and threonine-specific cdc2-inhibitory kinase (Homo sapiens) (UniProt Q99640).
T5 sequence (whole entry): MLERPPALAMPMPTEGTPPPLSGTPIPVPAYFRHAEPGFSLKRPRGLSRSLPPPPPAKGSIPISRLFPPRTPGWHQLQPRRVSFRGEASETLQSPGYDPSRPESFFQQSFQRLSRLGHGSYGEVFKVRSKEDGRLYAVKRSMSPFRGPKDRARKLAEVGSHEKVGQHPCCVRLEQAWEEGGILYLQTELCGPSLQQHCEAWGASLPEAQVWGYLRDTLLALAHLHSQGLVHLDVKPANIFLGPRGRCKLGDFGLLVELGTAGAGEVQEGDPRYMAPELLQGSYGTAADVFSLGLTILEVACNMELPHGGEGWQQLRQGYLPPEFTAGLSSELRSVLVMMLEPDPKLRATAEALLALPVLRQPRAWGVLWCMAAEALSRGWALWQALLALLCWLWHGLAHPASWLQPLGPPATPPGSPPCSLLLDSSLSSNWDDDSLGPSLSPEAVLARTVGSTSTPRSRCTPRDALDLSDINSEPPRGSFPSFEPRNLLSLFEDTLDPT
Briefly: Selectivity interaction (KinomeScan (DiscoverX)) EUB0000655a PKMYT1. The conditions noted are these: at 10 µM.

In ChEMBL document CHEMBL5465560, “Selectivity Literature for EUbOPEN Chemogenomic Library” (2024) one finds % of control and % of inhibition data, which are given here for 7 compounds.

Sequence of TGF-beta receptor type-2 (Homo sapiens) (P37173 whole entry): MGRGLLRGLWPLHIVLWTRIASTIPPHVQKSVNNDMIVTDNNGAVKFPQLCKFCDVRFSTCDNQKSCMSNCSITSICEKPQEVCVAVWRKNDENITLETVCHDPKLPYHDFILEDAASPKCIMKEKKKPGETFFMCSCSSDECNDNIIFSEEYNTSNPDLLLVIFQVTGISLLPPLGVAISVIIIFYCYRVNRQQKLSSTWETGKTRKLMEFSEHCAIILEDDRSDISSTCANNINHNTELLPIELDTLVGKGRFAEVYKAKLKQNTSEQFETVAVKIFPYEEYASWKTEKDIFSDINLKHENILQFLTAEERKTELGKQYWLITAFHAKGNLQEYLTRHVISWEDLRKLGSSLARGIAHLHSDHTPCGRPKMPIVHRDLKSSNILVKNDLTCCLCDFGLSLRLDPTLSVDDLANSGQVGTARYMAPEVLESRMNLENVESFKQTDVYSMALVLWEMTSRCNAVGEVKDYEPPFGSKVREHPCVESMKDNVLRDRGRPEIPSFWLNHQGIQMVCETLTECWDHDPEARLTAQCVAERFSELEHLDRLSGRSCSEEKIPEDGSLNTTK
Sequence of Casein kinase I isoform gamma-1 (Homo sapiens) (Q9HCP0 whole entry, looked up, canonical isoform): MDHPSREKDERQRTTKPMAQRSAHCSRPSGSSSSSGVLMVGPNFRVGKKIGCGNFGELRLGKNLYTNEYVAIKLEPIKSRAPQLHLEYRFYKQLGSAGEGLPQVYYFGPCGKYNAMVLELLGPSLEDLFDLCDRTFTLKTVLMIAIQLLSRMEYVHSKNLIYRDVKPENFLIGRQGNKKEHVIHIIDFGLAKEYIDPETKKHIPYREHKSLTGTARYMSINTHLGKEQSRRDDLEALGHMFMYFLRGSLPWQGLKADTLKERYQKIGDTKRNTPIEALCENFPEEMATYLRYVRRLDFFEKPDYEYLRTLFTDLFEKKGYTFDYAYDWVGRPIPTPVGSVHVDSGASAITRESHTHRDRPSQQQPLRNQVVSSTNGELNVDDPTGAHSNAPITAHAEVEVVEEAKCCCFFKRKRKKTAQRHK

`CCN(CC)CCCCNc1ncc2cc(-c3cc(OC)cc(OC)c3)c(NC(=O)NC(C)(C)C)nc2n1` gave a % of control in test [1] of 100%. `O=C(NOC[C@H](O)CO)c1ccc(F)c(F)c1Nc1ccc(I)cc1F` came in with a % of control in test [2] of 100%. `CNC(=O)Nc1ccc(-c2nc(N3CC4CCC(C3)O4)c3cnn(C4CCC5(CC4)OCCO5)c3n2)cc1` returned a % of control in test [3] of 89%. For the same compound, the % of inhibition in test [4] amounted to 15%.

For `CC[C@@H]1[C@H](F)C(=O)N[C@@H]1COc1nccc2cc(C(N)=O)c(OC)cc12` [ZIMLOVISERTIB], in test [5], the % of inhibition was -1%. `C=CC(=O)Nc1cc(-n2c(=O)ccc3cnc4ccc(-c5ccc(NS(C)(=O)=O)cc5)cc4c32)ccc1C`: the results for the % of control in test [6] (at 1 µM) and in test [6] (at 10 µM) were 72% and 79%, respectively. For `C=CC(=O)Nc1cccc(C(=O)Nc2ccc(Nc3cc(-c4[nH]c(SC)nc4C)ccn3)cc2)c1`, the % of control in test [7] (at 1 µM) came out at 91%; in test [7] (at 5 µM), 87%; in [8] (at 1 µM), 93%; in test [8] (at 5 µM), 86%. `CN(C)CCOc1ccc(-c2nc(-c3ccncc3)c(-c3ccc4c(c3)CC/C4=N\O)[nH]2)cc1` yielded a % of control in test [9] of 100%.
